Laboratory results as given in patent US20240228481A1, “NOVEL SULFONAMIDE SERIES OF QR2 INHIBITORS TO TACKLE OXIDATIVE STRESS AND COGNITIVE DECLINE” (CARMEL HAIFA UNIVERSITY ECONOMIC CORPORATION LTD., priority 2021, published 2024).
Where “and” joins values, the source holds several entries; their conditions need not be identical. Equal entries are not always repeated. Structures can show the parent of a compound that is named as a salt.

How the values were obtained:
QR1 (NQO1) = target: T1, QR1 (NQO1) (Homo sapiens, UniProt P15559); assay: Selectivity assay with QR1 in place of QR2, fluorescence readout; format: biochemical
T1 construct: purchased Sigma-Aldrich

HEK293T cells = assay: XTT cell viability assay; format: cell-based; details: 3 h incubation, 20 nM-20 μM
Protocol: HEK293FT cells were cultured with penicillin-streptomycin antibiotics in Invitrogen DMEM (Thermo Fisher Scientific) with 10% fetal bovine serum and L-glutamine and grown to 80-90% confluence in 100 mm plates, while being passaged every 2-3 days. For the XTT assay (Biological Industries), cells were then collected, centrifuged, and resuspended in fresh minimum essential medium, and seeded at 50,000 cells/well in 96-well, poly-L-lysine-coated Nunc black, clear flat-bottomed plates (Thermo Fisher Scientific). The next day, the cells were treated with increasing doses of QR2 inhibitors or vehicle for 3 h, and the XTT assay was then carried out as according to the manufacturer's instructions.

QR2 = target: T2, QR2 (Homo sapiens, UniProt P16083); assay: QR2 enzymatic activity assay (menadione/BNAH), fluorescence readout; format: biochemical; parameters: purchased Sigma-Aldrich
T2 sequence (P16083 1-231): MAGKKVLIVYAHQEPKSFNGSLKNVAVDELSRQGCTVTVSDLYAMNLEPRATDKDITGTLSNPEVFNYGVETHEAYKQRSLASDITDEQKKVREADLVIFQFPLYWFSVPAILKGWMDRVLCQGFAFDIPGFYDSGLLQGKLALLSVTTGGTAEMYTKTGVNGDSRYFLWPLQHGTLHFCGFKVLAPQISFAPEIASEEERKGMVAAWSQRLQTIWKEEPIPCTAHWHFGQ

THLE-2 cells = assay: Cell toxicity assay (ATP depletion, CellTiter Glo); details: 72 h incubation, CellTiter Glo

T1 sequence (P15559 whole entry): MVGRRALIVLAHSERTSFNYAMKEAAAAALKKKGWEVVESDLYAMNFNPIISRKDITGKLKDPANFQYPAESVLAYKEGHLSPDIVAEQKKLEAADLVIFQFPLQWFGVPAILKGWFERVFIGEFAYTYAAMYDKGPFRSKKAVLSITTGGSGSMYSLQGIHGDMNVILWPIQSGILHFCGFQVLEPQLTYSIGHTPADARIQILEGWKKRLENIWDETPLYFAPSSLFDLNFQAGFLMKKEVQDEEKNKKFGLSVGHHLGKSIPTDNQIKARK

SMILES	IC50 (QR1 (NQO1))	toxicity in XTT assay (HEK293T cells)	IC50 (QR2)	median lethal dose (LD50) in THLE cells (THLE-2 cells)
Cc1cccn2cc(-c3cccc(S(=O)(=O)N4CCC(C)CC4)c3)nc12 [YB-800]	> 9.99 µM	no toxicity	0.03 µM	78.4 µM and 78.401 µM
Cc1ccc(-c2cn3cccc(C)c3n2)cc1S(=O)(=O)N1CCNCC1 [YB-537, 8-methyl-2-(4-methyl-3-(piperazin-1-ylsulfonyl)phenyl)imidazo[1,2-a]pyridine hydrochloride]	18.4 µM	no toxicity	0.03 µM	> 100 µM
